We go through one compound from US20040029208A1, “Assay method and kit for testing biological material for exposure to stress using biomarkers” (priority 2000, published 2004).

The subject of the experiment is Anagallis arvensis. Nature of the experiment: TLC plant biomarker pattern after herbicide spraying (greenhouse). It counts as in vivo. As to the method:
The experiments were performed in the green-house at the National Environmental Research Institute, Silkeborg, Denmark. All the seeds needed light to germinate, and were sown at the soil surface in individual 11 cm pots. The soil used during the experiments contained: (SM Growing Mould (Growing medium by special soil (sphagnum) added clay granulate), 0-30 mm; grade of turnover 55-75; added per m^3: 3 kg lime (white chalk), 1.5 kg dolit chalk, 40 kg clay granulate; Fertilizer added granulate: NO3-N: 55.0 g; NH4-N: 65.0 g; P: 106.6 g; K: 224.0 g; Mg: 22 g; Micro nutrients added in chelate form, Mo in uorganic form: B-Boron: 1 g; Cu-copper: 6 g; Mn-Manganese: 3 g; Zinc-Zn: 3 g: Fe-iron: 6 g; Mo- molybdenum: 1.4 g).
During the experiments plants were watered from below, and the temperature in the green-house was maintained between 15° C. and 25° C. with variations due to external weather, and the photoperiod was 16th daylight. The green-house is divided into different units, which allowed for the separate maintenance of the control plants from the sprayed plants to avoid undesirable effects due to vapour drift.
Glyphosate (Roundup Bio (360 g L^−1) was supplied by Monsanto Denmark A/S. Recommended field dose=1,44 kg a.i. ha^−1. In all the experiments, an automatic sprayer (designed in Denmark by Jens Kristensen 1994) was used where the herbicide application is achieved by moving boom equipment with two ordinary hydraulic flat fan nozzles (Hardi 4110-16). Two pots per spray event were placed in the middle of the spray chamber at 50 cm distance from the nozzle, delivering 200 L of water per-hectare with a desired herbicide concentration (working pressure 2 bars; speed of spray boom=4.7 km h^−1). The spraying was performed starting with the lowest concentration first, progressing towards the highest concentration. Between each herbicide, the sprayer was thoroughly rinsed several times with water. The control plants were sprayed with water.
The fresh plant material was pressed using a hand press. The extract was immediately centrifuged. (3000 rpm) for 10 minutes. The supernatant was used for analysis. The extracts were kept cool or right above 0° C. during the test to avoid decomposition of biomarkers.
Freeze-dried plant material was crushed and 250 mg was extracted with 5.00 ml 75% ethanol in an ultrasonic bath for 2 hours. The temperature was kept <0° C. (using ice) during the extraction to avoid decomposition of biomarkers. The extract was centrifuged (3000 rpm) for 10 minutes. The supematant was used for analysis and were kept cool during the test to avoid decomposition of biomarkers.
The two extracts (freshtfresh ethanol) were applicated immediately on a TLC plate (10 μl on both TLC-Plate types (see below) using cool air-drying. The 75% ethanolic extract was applicated 10 μl on Silica-gel TLC-plates and 5 μl on Cellulose TLC-plates (see below). The fresh/fresh ethanolic extractsare recommended to perform if fresh plant material are to be analysed (field-test). The freeze-dried or frozen plant material extraction Is recommended if the analysis are performed in the laboratory.
[…] Derivatisation: Stock solution 1:50% sulfuric acid in 96% ethanol; Stock solution 2: 2% vanillin in absolut alcohol; Derivatisation-solvent, Fresh produced before us, stock solution 1 and stock solution 2 (1:10); Aftercare: 120° C. in 2-3 min. The plate is valuated visually. The system detects higher alcoholics, phenolic compounds, steroids and etheric oils (Stahl 1969), terpenoids, phenyl propanolds, phenolic compounds (Wagner etea. 1984)
TLC-System 7: HPTLC-Alufolie Silica Gel 60 F2u, Merck 1.05548 (10×10 cm); 10 μl plant extracts plants exposed to glyphosate and control plants; eluted in n-butanol: acetic acid: water (4:1:5) (upper phase after 5 minutes shaking). Derivatisation: 0,5 g p-anisaldehyde diluted in 10 ml conc. acetic acid and 85 ml absolute alcohol is and 5 ml conc. sulfuric acid (added in the following row). The plate is heated to. […]

`O=C(O)CNCP(=O)(O)O` [Glyphosate]: for the setting “Roundup Bio, Anagallis arvensis”, the “LC: lowest dose of concentration of the herbicide with phytochemical changes in all the TLC-Systems” value was 1% of field dose. Besides, the “Min. of label dose of herbicide with effect” value (TLC 1 (non-specific compounds)) stood at 1%; the “Min. of label dose of herbicide with effect” value (TLC 6 (lipids and terpens)) is recorded as 1%; the “Min. of label dose of herbicide with effect” value (TLC 4d (amino acids)) is on record as 1%.
